Measurements as given in US7772197B2, “1,3,5-triazines for treatment of viral diseases” (1,3,5-Triazines for Treatment of Viral Diseases, priority 2002, dated 2010).

Assays:
HIV = HIV infected SCID-Hu mice; format: in vivo
Description: (§1) After completion of this toxicology experiment, SN1212 was tested in HIV infected SCID-Hu mice. […] The discordance between viral infectivity and conventional surrogate markers of viral load, such as p24 or HIV RNA, is not surprising, as it has also been observed in vitro, and reflects the increased proportion of non-infectious viral particles in the presence of SN1212. It is also interesting to note that, of the treated groups, the immunologic profile of the SN1212 groups most closely resemble that of the uninfected group. This is compatible with the finding that infection with less “fit” viruses provides a relative clinical benefit by preserving cellular immunity.

HIV-1 LAI-M184V = experiment: Sensitivity of NRTI-resistant HIV strain M184V, MT-2 cells; format: cell-based; details: Human immunodeficiency virus 1, MT2
Description: 0.1 ml of a 3×10^5 cells/ml MT-2 cell suspension were seeded in 96-well plates at 3×10^4 cells/well. The compounds to be assayed were diluted in a separate 96-well at ten times (10×) the concentration needed for the screen. 22 μl of the 10× compounds was then added to the wells in triplicate except for six control wells, containing uninfected MT-2 cells alone (3 wells) and untreated HIV-infected MT-2 cells (3 wells). This was followed by the addition of HIV-1 at an MOI of 0.01, except for the three wells serving as the uninfected control. 0.1 ml of cRPMI was added to the uninfected well instead of virus. After the addition of virus, the 96-well plate was centrifuged at 1,200×g for two hours to enhance the adsorption of the virus by the MT-2 cells (see, e.g., O'Doherty, J. Virol. 74:10074-10080 (2000)). After the centrifugation step, the 96-well plate was then incubated in a 37° C. incubator containing 5% CO2 for three days. At the end of this time period the virus and cells were mixed by gentle pipetting followed by a 1 minute spin at 600×g to pellet the cells. The supernatant of each well was then serially diluted 1,000-fold into new 96-well plates to serve as inoculum for the next passage and assayed by ELISA for the amount of p24 produced. The next passage was performed as described above, except that the virus used to infect the cells was derived from the 1,000-fold dilution plate.
To determine if there is resistance of HIV NRTI resistant strains to mutagenic nucleoside analogues, NRTI resistant strains were grown in the presence of 5-aza-dC to determine whether the EC50 for 5-aza-dC is different from the WT strain (HIV-1 LAI). […] Growth of HIV NRTI resistant strains in the presence of the appropriate concentration of NRTI was used as a positive control.
Three HIV NRTI resistant strains (HIV-1 LAI-M184V, HIV-1 RTMDR1, with 74V, 41L, 106A and 215Y mutations, and HIV-1 RTMC, with 67N, 70R, 215F and 219Q mutations) were used to test the effectiveness of 5-aza-dC. […] Mutations include: M41L, E44D, A62V, K65R, D67N, T69DN, T69S_SS, K70R, L74V, V75I, F77L, Y115F, F116Y, V118I, Q151M, M184V, L210W, T215F and K219QE.
The effectiveness of DHAdC was tested against wild-type HIV strains and NRTI resistant HIV strains as described in Example 2. The following strains were tested: HIV-1 LAI, wild-type; HIV-I LAI-M184V-M184V mutation with resistance to lamivudine (3TC); HIV-1 RTMDR1-74V, 41L, 106A and 215Y mutations with resistance to zidovudine, didanosine, nevirapine and other non-nucleoside reverse transcriptase inhibitors; and HIV-1 RTMC-67N, 70R, 215F and 219Q with resistance to zidovudine.

[1] = Toxicology in SCID-Hu Thy/Liv mice; format: in vivo; details: up to 100 mg/kg/day subcutaneously, 21 days
Description: as §1

[2] = system: reverse transcriptase of HIV NL4-3; experiment: DHAdC viral mutagenicity, sense strand of RT fragment; format: cell-based; details: 50 μM
Description: The viral genomic DNA from cells treated with the deoxyribonucleoside analog 5-aza-dC (30 μM) was purified using a Qiagen DNeasy® Kit. 1 μg of genomic DNA was used to amplify a 1 kb region of the HIV-1 RT proviral DNA by PCR. The PCR product was then cloned into a TOPO® cloning vector. A Millipore Miniprep Kit was used to purify plasmid containing proviral inserts. About 45 positive clones were sequenced in both directions by a Beckman Coulter CEQ 8000. The sequencing results were analyzed and assembled using the DNASTAR Stagman program. Each mutated base was counted and the mutation rate was calculated over the total number of sequenced nucleotides.
Assessment of DHAdC viral mutagenicity was carried out as described above for 5-aza-dC. Mutagenesis of the sense strand of a 0.9 kb fragment of reverse transcriptase of HIV NL4-3 was determined after a single passage in SN1212 (50 μM) and compared to an untreated control.

mitochondrial DNA = experiment: Mitochondrial toxicity (lactate production, mitochondrial DNA); format: cell-based; details: highest dose tested, 320 μM, data not shown
Description: Mitochondrial toxicity is also a safety concern with nucleoside analogs. SN1212 was also analyzed for mitochondrial toxicity. […] (Data not shown.)

## NC1=NC(=O)N([C@H]2C[C@H](O)[C@@H](CO)O2)CN1 [DHAdC, 1-(2-Deoxy-β-D-ribofuranosyl)-4-amino-1,2,5,6-tetrahydro-1,3,5-triazin-2-one]
HIV; 10 mg/kg/day
  CD4+: 13%
  CD4+ CD8+: 70%
  CD8+: 9.5%
  HIV-1 RNA: 5.3 log copies/10^6 cells
  p24: 510 pg/10^6 cells
HIV; 10 mg/kg/day, ** p < 0.05
  Viral liter: 15.2** viruses/10^6 cells
HIV; 100 mg/kg/day
  CD4+: 10%
  CD4+ CD8+: 63%
  CD8+: 11%
  HIV-1 RNA: 5.1 log copies/10^6 cells
  Viral liter: 24.9 viruses/10^6 cells
  p24: 570 pg/10^6 cells
HIV-1 LAI-M184V
  EC50: 6 µM
[1]
  toxicity: without any significant toxicity
[2]
  C⇄T transitions, fold enhancement: 4.6 fold
  mutation rate in HIV RT, fold higher than control: 1.4 fold
[2]; number of mutations
  A→C C→A mutations: 1
  A→T T→A mutations: 1
  G→A A→G mutations: 17
  G→C C→G mutations: 3
  G→T T→G mutations: 3
  T→C C→T mutations: 12
[2]; single passage
  mutation rate %: 0.015%
[2]; treated, control 0.0011
  mutation rate in HIV RT: 0.0015
Mitochondrial DNA
  mitochondrial toxicity (increase in lactate production or inhibition of mitochondrial DNA): does not demonstrate evidence of mitochondrial toxicity
